Experimental data taken from ChEMBL document CHEMBL1201862, “PubChem BioAssay data set” (2004).
Activity calls are given as the source filed them.

Tests used:
[1] = molecular target: T1, Short transient receptor potential channel 4 (Mus musculus, UniProt Q9QUQ5); assay: mouse TRPC4 channel activators, dose response, cell-based, HEK293 TRPC4/mu-opioid, Fluo-4 calcium (AID 434937); type: functional
T1 sequence (Q9QUQ5 whole entry): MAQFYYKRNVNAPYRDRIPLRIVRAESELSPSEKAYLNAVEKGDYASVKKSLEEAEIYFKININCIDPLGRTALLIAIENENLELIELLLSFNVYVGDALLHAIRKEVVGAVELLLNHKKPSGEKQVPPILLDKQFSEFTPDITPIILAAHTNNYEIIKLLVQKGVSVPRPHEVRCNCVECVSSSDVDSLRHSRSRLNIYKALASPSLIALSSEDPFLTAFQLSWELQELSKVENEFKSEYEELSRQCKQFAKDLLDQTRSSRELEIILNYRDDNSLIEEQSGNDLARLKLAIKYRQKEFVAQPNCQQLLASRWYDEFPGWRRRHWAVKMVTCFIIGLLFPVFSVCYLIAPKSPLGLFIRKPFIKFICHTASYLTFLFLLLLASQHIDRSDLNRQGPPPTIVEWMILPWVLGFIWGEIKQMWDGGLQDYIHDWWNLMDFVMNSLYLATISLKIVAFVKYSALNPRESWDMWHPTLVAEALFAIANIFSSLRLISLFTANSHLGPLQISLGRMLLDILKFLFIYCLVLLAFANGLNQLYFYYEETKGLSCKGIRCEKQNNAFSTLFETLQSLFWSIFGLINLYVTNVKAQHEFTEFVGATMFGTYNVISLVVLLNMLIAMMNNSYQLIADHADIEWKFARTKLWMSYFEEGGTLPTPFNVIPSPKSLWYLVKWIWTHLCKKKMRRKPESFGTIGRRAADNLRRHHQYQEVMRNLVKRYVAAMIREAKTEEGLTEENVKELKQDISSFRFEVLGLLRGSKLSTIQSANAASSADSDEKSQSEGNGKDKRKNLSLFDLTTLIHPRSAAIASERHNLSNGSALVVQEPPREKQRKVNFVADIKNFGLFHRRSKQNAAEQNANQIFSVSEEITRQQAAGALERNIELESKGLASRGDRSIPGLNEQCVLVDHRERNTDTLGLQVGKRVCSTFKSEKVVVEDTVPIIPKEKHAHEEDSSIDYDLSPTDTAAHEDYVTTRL

[2] = molecular target: Troponin, cardiac muscle (Homo sapiens, UniProt P19429+P45379+P63316); assay: Fluorescence-based biochemical high throughput dose response assay for activators of the calcium sensitivity of cardiac Regulated Thin Filaments (RTF). [Related pubchem assays (depositor defined):AID493008, AID493018, AID504382, AID504383]; type: protein-complex assay
[3] = system: H4; assay: Luminescence Cell-Based Dose Response HTS to Identify Activators of 5'UTR Stem-Loop Driven Prion Protein mRNA Translation in H4 Neuroglioblastoma Cells. [Related pubchem assays: 1829 (Project Summary), 1814 (Primary HTS)]; type: functional; details: Homo sapiens
[4] = system: HEK293; assay: NOD1 signaling inhibitors, primary screen, cell-based, luminescence, uHTS (AID 1578); type: functional; details: Homo sapiens
[5] = system: HEK293; assay: cells; type: functional, cell-based; details: Homo sapiens
[6] = molecular target: T2, Heat shock factor protein 1 (Mus musculus, UniProt P38532); assay: inhibition of MG132-induced HSE-luciferase signal, confirmation, cell-based, NIH3T3, luminescence, dose retest (AID 2382); type: functional;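 also: NIH3T3 fibroblasts with HSF1-driven luciferase reporter stressed by proteasome inhibitor MG132; luminescence from HSF1-driven luciferase expression after 8 hours of MG132 stress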
T2 sequence (P38532 whole entry): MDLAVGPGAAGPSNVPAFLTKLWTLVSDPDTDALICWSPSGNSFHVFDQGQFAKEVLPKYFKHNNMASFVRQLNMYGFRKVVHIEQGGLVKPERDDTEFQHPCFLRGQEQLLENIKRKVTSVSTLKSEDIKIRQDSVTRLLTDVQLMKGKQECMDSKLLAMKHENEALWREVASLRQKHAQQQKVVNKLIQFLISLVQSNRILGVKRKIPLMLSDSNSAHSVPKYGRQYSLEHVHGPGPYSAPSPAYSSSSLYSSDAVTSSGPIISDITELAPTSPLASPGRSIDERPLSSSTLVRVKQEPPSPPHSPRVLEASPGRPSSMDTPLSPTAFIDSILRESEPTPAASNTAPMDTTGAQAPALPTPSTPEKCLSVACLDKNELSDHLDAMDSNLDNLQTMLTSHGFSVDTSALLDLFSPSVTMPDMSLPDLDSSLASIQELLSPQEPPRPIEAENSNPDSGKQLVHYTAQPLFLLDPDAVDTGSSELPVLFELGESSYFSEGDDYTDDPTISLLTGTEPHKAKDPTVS

[7] = system: HEK293; assay: cells; type: functional, cell-based; details: Homo sapiens; remark: listed apart in the source
[8] = molecular target: Nucleotide-binding oligomerization domain-containing protein 2 (Homo sapiens, UniProt Q9HC29); assay: NOD2 signaling inhibitors, cell-based, luminescence, uHTS, HEK293 (AID 1566); type: functional
[9] = system: HEK293; assay: NOD2 signaling inhibitors in MDP-stimulated cells, cell-based, uHTS, luminescence (AID 2001); type: functional; details: Homo sapiens
[10] = system: HEK293; assay: cells; type: functional, cell-based; details: Homo sapiens; remark: listed apart in the source
[11] = molecular target: DNA dC->dU-editing enzyme APOBEC-3A (Homo sapiens, UniProt P31941); assay: Dose Response confirmation of small molecule APOBEC3A DNA Deaminase Inhibitors via a fluorescence-based single-stranded DNA deaminase assay. [Related pubchem assays (depositor defined):AID493011, AID493024]; type: functional
[12] = molecular target: DNA dC->dU-editing enzyme APOBEC-3G (Homo sapiens, UniProt Q9HC16); type: functional;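 also: Dose-response counterscreen measuring inhibition of APOBEC3G DNA deaminase activity, run while confirming APOBEC3A inhibitors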
[13] = molecular target: Genome polyprotein (dengue virus type 2, UniProt P29990); assay: Dengue-2 NS5 methyltransferase inhibitors, primary screen, biochemical, confirmation dose response (AID 588689); type: functional
[14] = molecular target: T3, Long-chain-fatty-acid--AMP ligase FadD28 (Mycobacterium tuberculosis, UniProt P9WQ59); assay: Fluorescence polarization aasay to screen for inhibitors that compete for the binding of FadD28 to a bisubstrate Measured in Biochemical System Using Plate Reader - 2147-01_Inhibitor_Dose_CherryPick_Activity.; type: functional, Mycobacterium tuberculosis H37Rv
T3 sequence (P9WQ59 whole entry): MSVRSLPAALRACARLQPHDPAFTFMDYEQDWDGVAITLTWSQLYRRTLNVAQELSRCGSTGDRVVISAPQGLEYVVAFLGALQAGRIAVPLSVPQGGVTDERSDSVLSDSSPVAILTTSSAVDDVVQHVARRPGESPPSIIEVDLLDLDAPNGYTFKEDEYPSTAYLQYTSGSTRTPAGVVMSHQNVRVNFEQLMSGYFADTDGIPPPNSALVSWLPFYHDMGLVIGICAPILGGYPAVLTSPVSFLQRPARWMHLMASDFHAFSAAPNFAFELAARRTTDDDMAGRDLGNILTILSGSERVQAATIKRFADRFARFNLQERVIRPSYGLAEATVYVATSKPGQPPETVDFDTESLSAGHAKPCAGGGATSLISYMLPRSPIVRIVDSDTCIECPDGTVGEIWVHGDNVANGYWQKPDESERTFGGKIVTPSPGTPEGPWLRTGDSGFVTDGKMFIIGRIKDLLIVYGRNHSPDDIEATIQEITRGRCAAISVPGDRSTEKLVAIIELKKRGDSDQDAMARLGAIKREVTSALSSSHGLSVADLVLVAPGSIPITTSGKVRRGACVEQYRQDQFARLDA

[15] = molecular target: T4, Caspase-6 (Homo sapiens, UniProt P55212); assay: human caspase-6 inhibitors, dose response, biochemical, VEID-R110 fluorescence, cherry-pick (AID 720632)
T4 sequence (P55212 whole entry): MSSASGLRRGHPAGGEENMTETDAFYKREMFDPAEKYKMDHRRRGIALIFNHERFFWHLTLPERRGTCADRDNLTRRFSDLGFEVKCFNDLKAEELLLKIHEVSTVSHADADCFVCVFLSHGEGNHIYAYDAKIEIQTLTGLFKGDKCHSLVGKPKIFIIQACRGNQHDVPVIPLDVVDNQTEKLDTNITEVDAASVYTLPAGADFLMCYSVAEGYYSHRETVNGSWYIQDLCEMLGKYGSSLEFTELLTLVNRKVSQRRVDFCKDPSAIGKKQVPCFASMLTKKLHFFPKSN

[16] = system: Streptococcus sp. 'group A'; assay: growth inhibition of control SK(-) GAS strain, dose response, counter-screen for streptokinase expression inhibitor project, luminescence, kanamycin, BacTiterGlo, confirmation (AID 1900); type: functional, organism-based
[17] = system: Streptococcus; assay: Group A Streptococcus viability loss, dose response, counter-screen for streptokinase expression inhibitor project, luminescence, BacTiterGlo (AID 1915); type: functional, organism-based;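 also: potency for reduction of bacterial viability or growth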
[18] = THP-1 cell cytotoxicity, dose response, cytotoxicity control for non-replicating M. tuberculosis project (AID 489025); type: functional
[19] = Vero E6 cell cytotoxicity, dose response, cytotoxicity control for non-replicating M. tuberculosis project, secondary assay (AID 492998); type: functional, VeroE6; details: Vero C1008
[20] = cells; type: functional
[21] = system: Vero; assay: cells; type: functional, cell-based; details: Chlorocebus sabaeus
[22] = system: Vero; assay: cells; type: functional; details: Chlorocebus sabaeus

CCN1CCN(c2ccc(S(=O)(=O)N3CCCCC3)cc2NC(=O)C(C)Oc2ccc(F)cc2)CC1 (centres undefined)
EC50 [1]: 10.6 µM (active)

CC(COC(=O)c1ccccc1)(COC(=O)c1ccccc1)/[N+]([O-])=C/c1ccccc1
EC50 [2]: > 71.5 µM (inactive)

CCN1C(=O)/C(=C/N2CCc3ccccc32)SC1=S
EC50 [3]: 4.21 µM (active)
EC50 [2]: 5.4 µM (active)

O=C(Nc1ccncc1)c1c(F)cccc1F
EC50 [4]: 9.17 µM (active)
IC50 [5]: 3.91 µM (active)
EC50 [6]: 24.1 µM (active)
IC50 [7]: > 20 µM (inactive)
EC50 [8]: 4.55 µM (active)
IC50 [9]: 4.33 µM (active)
IC50 [10]: > 20 µM (inactive)

COc1ccc(-c2cc(C(=O)NCC(c3ccccc3)N(C)C)c3ccccc3n2)cc1OC (centres undefined)
EC50 [1]: 10.6 µM (active)

O=C(CCSc1ccccc1)N1CCN(C(=O)c2ccco2)CC1
EC50 [2]: > 71.5 µM (inactive)

C=CCOc1ccc(C(c2c(C(=O)O)[nH]c3ccccc23)c2c(C(=O)O)[nH]c3ccccc23)cc1
IC50 [11]: 21.5 µM (active)
IC50 [12]: 28.8 µM (active)
IC50 [13]: 22 µM (active)
AC50 [14]: 12 µM (active)
AC50 [15]: 14.2 µM (active)

COc1ccc(Cl)cc1/C=C/c1ccc2cccc(O)c2n1
EC50 [4]: 5.5 µM (active)
EC50 [16]: 0.786 µM (active)
IC50 [5]: 14 µM (active)
IC50 [7]: > 20 µM (inactive)
EC50 [8]: > 20 µM (inactive)
IC50 [9]: 4.73 µM (inactive)
IC50 [10]: > 20 µM (inactive)
EC50 [17]: 3.58 µM (active)

c1ccc(Nc2nc(Nc3ccccc3)nc(N3CCNCC3)n2)cc1
CC50 [18]: 23 µM (active)
CC50 [19]: > 20 µM (active)
EC50 [1]: 3.35 µM (active)
IC50 [20]: 26.5 µM (active)
IC50 [21]: > 25 µM (active)
CC50 [22]: 22.6 µM (active)

Cc1ccc(CNC(=O)CCNC(=O)c2ccc([N+](=O)[O-])cc2)cc1
IC50 [11]: 6.67 µM (active)
IC50 [12]: 10.9 µM (active)
